Patent US20190077766A1, “Compositions For APP-Selective BACE Inhibition And Uses Therefor” (NantNeuro, LLC, priority 2015, published 2019)
“And” between values parts separate entries of the source, which are not always exact repeats. Equal entries are not always repeated. Structures can show the parent of a compound that is named as a salt. Where two headings read alike, the source gives them in different places.

Legend:
[1] = molecular target: T1, BACE1 (Homo sapiens, UniProt P56817); experiment: in vitro BACE inhibition assay (Primary BACE1 IC50); assay type: biochemical
T1 construct: purchased R&D 931-AS-050
From the text: ABBI Assay: APP Binding BACE Inhibitor (ABBI) activity of any of the compounds described herein can readily be verified using, for example, assays described herein. Basically, in certain embodiments a pair the assays are utilized to identify ABBI compounds that inhibit BACE cleavage of the MBP-C125 APP substrate, resulting in the inhibition of the production of C99 and the β-site peptide substrate (P5-P5′) and also interacts with APP, for example, as measured by surface plasmon resonance (SPR) analysis. In one illustrative embodiment, an MBP-C125 APP695 wt fusion protein can be used as one of the substrates and the second substrate can be the commercially available P5-P5′ fluorescence substrate.

[2] = tested on: CHO-7W cells that were stably transfected with human APP (wildtype); experiment: Secondary cell-based APP processing assay (sAPPalpha, sAPPbeta, Abeta 1-42); details: for Aβ1-42 peptide formation / production: cell based; for preference (selectivity) towards APP in BACE inhibition: from Aβ1-42, sAPPβ and sAPPα formation
From the text: Cellular Assays: Numerous cell-based assays can be used to evaluate the activity of agent(s) of interest on relative alpha-secretase activity to beta-secretase activity and/or processing of APP to release amyloidogenic versus non-amyloidogenic oligomers.
Human cell lines that normally process Aβ from APP provide a useful means to assay inhibitory activities of the agent(s). Production and release of Aβ and/or other cleavage products into the culture medium can be measured, for example by immunoassay, such as Western blot or enzyme-linked immunoassay (EIA) such as by ELISA.
Relative activity of the alpha-secretase to the beta-secretase can be measured by analysis of one or more cleavage products of the APP substrate. For example, inhibition of beta-secretase activity against the substrate APP would be expected to decrease release of specific beta-secretase induced APP cleavage products such as Aβ (e.g., Aβ40 or Aβ42), sAPPβ and APPneo. Promotion or enhancement of alpha-secretase activity against the substrate APP would be expected to increase release of specific alpha-secretase induced APP cleavage products such as sAPPα and p3 peptide.
In such assays, for example, the cells expressing APP, alpha-secretase and/or beta-secretase are incubated in a culture medium under conditions suitable for alpha-secretase and/or beta-secretase enzymatic activity at its cleavage site on the APP substrate. On exposure of the cells to the agent(s), the amount of Aβ released into the medium and/or the amount of CTF99 fragments of APP in the cell lysates is reduced as compared with the control. The cleavage products of APP can be analyzed, for example, by immune reactions with specific antibodies, as discussed above.

[3] = solubility (Sol); assay type: physicochemical; details: Table 3; in words
[4] = pharmacokinetics, brain level (Cmax brain); assay type: in vivo
From the text: As is readily apparent, not all compounds were equally able to cross the blood brain barrier, but most compounds did reach pharmacologically meaningful levels given their low IC50 values. FIG. 5A provides a further exemplary compound (FAH65) and FIG. 5B depicts dose response data for Aβ1-42 production in a cell based system. Further shown are effects observed with regard to Aβ1-42 production, sAPPβ and sAPPα formation. […] Here, data are presented for oral and subcutaneous administration (SQ) at dosages of 10- and 30 mg/kg. […] Once more, it should be noted that these exemplary compounds are preferential towards APP in BACE inhibition as can be taken from the data for Aβ1-42, sAPPβ, and sAPPα formation.

[5] = Table 4, several values in a cell = several determinations, read-out: BACE1 IC50
[6] = Tables 1 and 2, read-out: Primary BACE1 IC50
[7] = Table 2, one cell for the whole line

T1 sequence (P56817 46-457 limits assumed): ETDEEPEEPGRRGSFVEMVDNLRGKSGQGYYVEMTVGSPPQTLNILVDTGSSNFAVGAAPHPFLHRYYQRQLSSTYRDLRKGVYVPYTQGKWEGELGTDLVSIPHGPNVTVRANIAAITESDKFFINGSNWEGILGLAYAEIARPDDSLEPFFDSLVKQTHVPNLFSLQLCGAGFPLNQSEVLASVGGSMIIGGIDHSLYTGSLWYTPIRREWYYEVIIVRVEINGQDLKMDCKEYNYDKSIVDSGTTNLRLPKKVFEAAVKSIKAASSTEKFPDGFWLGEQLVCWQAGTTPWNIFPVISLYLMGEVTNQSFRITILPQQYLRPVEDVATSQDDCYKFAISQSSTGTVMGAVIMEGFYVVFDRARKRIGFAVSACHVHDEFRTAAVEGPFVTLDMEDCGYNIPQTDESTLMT

Compound | IC50 [1, 5] | IC50 [1, 6] | further results
Cc1cc(C2(c3cccc(C(F)(F)F)c3)N=C(N)N(C)C2=O)ccc1OC(F)F (stereo not drawn) [FAH-28] | 380 nM | 380 nM | 
Cc1cc(F)cc(C2(c3ccc(OC(F)F)c(C)c3)N=C(N)N(C)C2=O)c1 (stereo not drawn) [FAH-22] |  |  | sAPPbeta ([2]; Secondary (1st test, n = 3), ↓ = decrease): ↓>20%
COc1ccc(C2(c3cc(F)cc(F)c3)N=C(N)N(C)C2=O)cc1F (stereo not drawn) [FAH-12] | 2600 nM |  | 
CN1C(=O)C(c2ccc(OC(F)F)cc2)(c2cccc(-c3cncnc3)c2)N=C1N (stereo not drawn) [FAH-74] | 10 nM |  | IC50 ([1]; in vitro BACE inhibition assay, FIG. 8, read-out: IC50): 9 nM
CC#Cc1cc(C2(c3ccc(OC(F)F)c(C)c3)N=C(N)N(C)C2=O)ccn1 (stereo not drawn) [FAH-57] | 240 nM |  | 
Cc1cc(C2(c3ccnc(F)c3)N=C(N)N(C)C2=O)ccc1OC(F)F (stereo not drawn) [FAH-46] | 1600 nM | 1200 nM | IC50 ([1]; Table 3, read-out: IC50): ~1200 nM; Sol [3]: good; Cmax brain ([4]; 10 mg/kg 5Q): ~0.3 µM; Cmax brain ([4]; 30 mg/kg): 1.3 μM @ 30 mL
Cc1cc(C2(c3cc(F)c(F)c(F)c3)N=C(N)N(C)C2=O)ccc1OC(F)F (stereo not drawn) [FAH-19] | 960 nM |  | 
COc1ccc(C2(c3ccc(F)cc3F)N=C(N)N(C)C2=O)cc1C (stereo not drawn) [FAH-08] | 2300 nM |  | 
CN1C(=O)C(c2cc(F)cc(F)c2)(c2ccc(F)c(F)c2)N=C1N (stereo not drawn) [FAH-14] | 1500 nM |  | 
Cc1cc(C)cc(C2(c3cc(F)cc(F)c3)N=C(N)N(C)C2=O)c1 (stereo not drawn) [FAH-05] | 6460 nM |  | 
Cc1cc(C2(c3cc(-c4cccnc4)ccn3)N=C(N)N(C)C2=O)ccc1OC(F)F (stereo not drawn) [FAH-65] |  |  | Aβ1-42 peptide formation / production ([2]; in words): strongly reduces; preference (selectivity) towards APP in BACE inhibition ([2]; in words): clear preference towards APP
Cc1cc(C2(c3cccc(-c4ccccc4)c3)N=C(N)N(C)C2=O)ccc1OC(F)F (stereo not drawn) [FAH-73] | 870 nM |  | 
COCc1cccc(C2(c3ccc(OC(F)F)c(C)c3)N=C(N)N(C)C2=O)c1 (stereo not drawn) [FAH-44] | 300 nM and 50 nM | 300 nM | IC50 ([1]; Table 3, read-out: IC50): ~25 nM; sAPPalpha ([2]; Secondary (1st test, n = 3), ↑ = increase): ↑>10%; Sol [3]: med; Cmax brain ([4]; 10 mg/kg 5Q): ~0.2 µM
COc1ccc(C2(c3cc(F)cc(F)c3)N=C(N)N(C)C2=O)cn1 (stereo not drawn) [FAH-11] | 1800 nM |  | 
Cc1cc(C2(c3cccc(-c4cccnc4)c3)N=C(N)N(C)C2=O)ccc1OC(F)F (stereo not drawn) [FAH-32] | 70 nM and 50 nM | 70 nM | IC50 ([1]; Table 3, read-out: IC50): ~60 nM; sAPPα formation ([2]; in words, FIG. 1D): increased sAPPα formation as compared to FAH17; sAPPβ formation ([2]; in words, FIG. 1D): reduced as compared to FAH17; Aβ1-42 peptide formation / production ([2]; in words): substantially reduced; preference (selectivity) towards APP in BACE inhibition ([2]; in words): higher selectivity of FAH32 towards APP; Sol [3]: Sol: good; Cmax brain ([4]; 10 mg/kg 5Q): <0.02 µM
Cc1cc(C2(c3cccc(Cl)c3)N=C(N)N(C)C2=O)ccc1OC(F)F (stereo not drawn) [FAH-23] | 320 nM | 320 nM | 
CN1C(=O)C(c2ccccc2)(c2cc(F)cc(F)c2)N=C1N (stereo not drawn) [FAH-01] | 2670 nM and 4700 nM |  | 
Cc1cc(C2(c3cc(F)cc(F)c3)N=C(N)N(C)C2=O)ccc1F (stereo not drawn) [FAH-10] | 1600 nM |  | 
Cc1cc(C2(c3cccc(F)c3)N=C(N)N(Cc3ccccc3)C2=O)ccc1OC(F)F (stereo not drawn) [FAH-42] | 2300 nM and 2700 nM |  | 
Cc1cc(C2(c3cnn(C)c3)N=C(N)N(C)C2=O)ccc1OC(F)F (stereo not drawn) [30 HCl] |  | 2000 nM | 
Cc1cc(C2(c3cnn(C)c3)N=C(N)N(C)C2=O)ccc1OC(F)F (stereo not drawn) [FAH-30] | 2000 nM |  | 

Compound | IC50 [1, 5] | IC50 [1, 6] | further results
Cc1cccc(C2(c3ccc(OC(F)F)c(C)c3)N=C(N)N(C)C2=O)c1 (stereo not drawn) [FAH-27] | 130 nM | 130 nM | 
CN1C(=O)C(c2ccc(OC(F)F)cc2)(c2cc(F)cc(F)c2)N=C1N (stereo not drawn) [FAH-02] | 2130 nM and 9200 nM |  | 
Cc1cc(C2(C3CCCCC3)N=C(N)N(C)C2=O)ccc1OC(F)F (stereo not drawn) [FAH-59] | 1500 nM and 750 nM | 1500 nM | Toxicity in secondary cell assay [2, 7]: Toxic
CCCc1cc(C2(c3ccc(OC(F)F)c(C)c3)N=C(N)N(C)C2=O)ccn1 (stereo not drawn) [FAH-80] | 1670 nM |  | 
Cc1cc(C2(c3cccc(C(C)C)c3)N=C(N)N(C)C2=O)ccc1OC(F)F (stereo not drawn) [FAH-29] | 11000 nM |  | 
COCc1cc(C2(c3ccc(OC(F)F)c(C)c3)N=C(N)N(C)C2=O)ccn1 (stereo not drawn) [FAH-53] | 1900 nM | 2000 nM | 
Cc1cc(C2(C3CCNCC3)N=C(N)N(C)C2=O)ccc1OC(F)F (stereo not drawn) [FAH-79] | 17600 nM |  | 
COc1cc(C2(c3ccc(OC(F)F)c(C)c3)N=C(N)N(C)C2=O)ccn1 (stereo not drawn) [FAH-48] | 4800 nM | 4800 nM | 
Cc1cc(C2(c3ccc(OC(F)F)c(C)c3)N=C(N)N(C)C2=O)ccn1 (stereo not drawn) [FAH-47] | 1400 nM | 1400 nM | 
Cc1cc(C2(c3ccncc3)N=C(N)N(C)C2=O)ccc1OC(F)F (stereo not drawn) [FAH-78] | 2730 nM |  | 
CN1C(=O)C(c2cc(F)cc(F)c2)(c2cccc(OC(F)F)c2)N=C1N (stereo not drawn) [FAH-04] | 2230 nM and 3500 nM |  | 
Cc1cc(C2(c3cccc(F)c3)N=C(N)N(C)C2=O)ccc1OC(F)F (stereo not drawn) [FAH-17] |  | 150 nM | IC50 ([1]; Table 3, read-out: IC50): ~100 nM; Sol [3]: med; Cmax brain ([4]; 10 mg/kg 5Q): ~0.3 µM
CNCc1cccc(C2(c3ccc(OC(F)F)c(C)c3)N=C(N)N(C)C2=O)c1 (stereo not drawn) [FAH-62] | 370 nM | 600 nM | IC50 ([1]; Table 3, read-out: IC50): ~60 nM; Sol [3]: excellent
Cc1cc(C2(c3cncnc3)N=C(N)N(C)C2=O)ccc1OC(F)F (stereo not drawn) [FAH-33] | 10000 nM | 10000 nM | 
COc1ccc(C2(c3cc(C)c(F)cc3F)N=C(N)N(C)C2=O)cc1C (stereo not drawn) [FAH-09] | 1400 nM |  | 
CN1C(=O)C(c2cc(F)cc(F)c2)(c2ccnc(F)c2)N=C1N (stereo not drawn) [FAH-15] | 2000 nM |  | 
Cc1cc(C2(c3cncc(F)c3)N=C(N)N(C)C2=O)ccc1OC(F)F (stereo not drawn) [FAH-37] |  | 5300 nM | IC50 ([1]; Table 3, read-out: IC50): ~5300 nM; reducing BACE activity in vitro ([1]; in words, FIG. 2B): less effective; Sol [3]: good; Cmax brain ([4]; (IP), no unit in the cell, neighbours μM): ~0.11 (IP)
Cc1cc(C2(c3cocn3)N=C(N)N(C)C2=O)ccc1OC(F)F (stereo not drawn) [FAH-38] | 15300 nM | > 10000 nM | Secondary (sAPPalpha, sAPPbeta, sAPP(α/β), Abeta 1-42, sAPPa/Aβ) [2, 7]: unchanged
COc1ccc(C2(c3cc(F)cc(F)c3)N=C(N)N(C)C2=O)cc1C (stereo not drawn) [FAH-06] | 600 nM and 4100 nM |  | 
Cc1cc(C2(c3cc(F)cc(Cl)c3)N=C(N)N(C)C2=O)ccc1OC(F)F (stereo not drawn) [FAH-25] | 570 nM | 570 nM | 
CCCC1CC(C2(c3ccc(OC(F)F)c(C)c3)N=C(N)N(C)C2=O)CCN1 (stereo not drawn) [FAH-81] | 14900 nM |  | 
